Experimental data from PubChem BioAssay (NCI).
“And” between values parts separate entries of the source, which are not always exact repeats. Equal values may be shown once.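 A five-concentration, 48-hour dose response in 96-well plates underlies each endpoint, interpolated linearly between surrounding concentrations. TGI is the concentration that stops growth completely.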

What was measured:
Assay in all cases: growth of human tumour cells (NCI), 48 h
CCRF-CEM leukemia = tested on: CCRF-CEM leukemia
DLD-1 colon = tested on: DLD-1 colon
DMS 273 small cell lung = tested on: DMS 273 small cell lung
EKVX NSCLC = tested on: EKVX NSCLC
HS 578T breast = tested on: HS 578T breast
HT29 colon = tested on: HT29 colon
IGROV1 ovarian = tested on: IGROV1 ovarian
M19-MEL melanoma = tested on: M19-MEL melanoma
MCF7 breast = tested on: MCF7 breast
SN12C renal = tested on: SN12C renal

Question: For `CNCCCNc1c2ccccc2nc2cccc([N+](=O)[O-])c12`, which TGI (CCRF-CEM leukemia) is on record?
Answer: Its TGI is 14.3 nM.

Question: And the TGI (DLD-1 colon)?
Answer: The TGI was 26.4 nM.

Question: And the TGI (DMS 273 small cell lung)?
Answer: Its TGI is 46.5 nM.

Question: And the TGI (EKVX NSCLC)?
Answer: Its TGI is 22.6 nM and 38.9 nM.

Question: And the TGI (HS 578T breast)?
Answer: Its TGI is 8.26 nM.

Question: And the TGI (HT29 colon)?
Answer: The TGI was 18.5 nM.

Question: And the TGI (IGROV1 ovarian)?
Answer: Its TGI is 20.1 nM and 27.9 nM.

Question: And the TGI (M19-MEL melanoma)?
Answer: The TGI was 17.1 nM.

Question: And the TGI (MCF7 breast)?
Answer: Its TGI is 89 nM.

Question: What about the TGI (SN12C renal) of the same molecule?
Answer: Its TGI is < 31.8 nM and 18.1 nM.
